Measurements as given in PubChem BioAssay AID2060611 (Molecular Pharmacology Branch, DTP, NCI, 2025).
Values joined by “and” are separate entries in the source; they are usually repeats but may differ in a detail not shown here. Equal entries are not always repeated.

Tested on: 628569-122-R-J1-PDC complex spheroid viability
Assay: Anticancer human tumor 628569-122-R-J1-PDC patient-derived head and neck squamous carcinoma cell line growth inhibition [CLK]
Conditions: for viability, T/C: stronger effect = lower value
From the text: A high-throughput screen of multi-cell type tumor spheroids was designed to identify active combinations of […] and targeted small molecules. Complex spheroids include a stromal component modeled by human endothelial cells (HUVEC) and fibroblasts modeled by human mesenchymal stem cells (MSCs). The concentration ranges selected for each drug and investigational agent were based upon clinically achievable concentrations if the clinical Cmax of the agent was known.
Compounds. The drugs and investigational agents: cirtuvivint (SM08502; NSC835563), CC-671 (NSC850746), vemurafenib (NSC761431), tapotoclax (NSC804041), sotorasib (NSC818433), adagrasib (NSC831453), MRTX-1133 (NSC836407), BAY2416964 (NSC825713), copanlisib (NSC816437), inavolisib (NSC800729), abemaciclib (NSC768073), osimertinib (NSC779217), entinostat (NSC756642), eltanexor (KPT-8602, NSC794443), venetoclax (NSC766270), ceralasertib (NSC777638), bortezomib (NSC756655), olaparib (NSC753686), talazoparib (NSC767125), alisertib (NSC759677), peposertib (NSC802822), gemcitabine (NSC613327), 5-fluorouracil (NSC19893), SN-38 (NSC673596), oxaliplatin (NSC266046), paclitaxel (NSC125973), and doxorubicin (NSC123127), were obtained from the National Cancer Institute (NCI) Developmental Therapeutics Program Chemical Repository. The FDA-approved anticancer drug set is available from the Developmental Therapeutics Program at https://dtp.cancer.gov/organization/dscb/obtaining/available plates.htm. […] The stock solutions were prepared in dimethyl sulfoxide (DMSO, Sigma-Aldrich, St. Louis, MO, cat. D2650), except for the platinum complexes which were prepared in saline (Quality Biological, Gaithersburg, MD, cat. 114-055-101), at 800-fold the tested concentration and stored at -70 degrees C prior to their use. All drugs and investigational agents were tested over a range starting from a high concentration at or near the clinical Cmax and decreasing in half-log increments. If the clinical Cmax for an agent had not been determined, the highest concentration tested was 10 microM.
Cell Culture. All cells were maintained in an incubator at 37 degrees C and 5% CO2 with 95% humidity. The PDC lines were cultured according to standard operating procedures established by the NCI PDMR. Briefly, all PDCs were thawed and cultured in Matrigel-coated flasks prepared with a working solution of 1X Ham's F-12 nutrient mix, without supplementation (Invitrogen, Waltham, MA, cat. 11765054), 100 U/mL penicillin-streptomycin (Invitrogen, cat. 15140122), and 2.5% Matrigel (Corning Inc., Corning, NY, cat. 354248) for the first three passages. The 947758-054-R-J2-PDC line was cultured in 6B/Colon 1A media, which includes advanced DMEM/F-12 (Thermo Fisher Scientific, cat. 12634028), 10 mM HEPES (Thermo Fisher Scientific, cat. 15630080), 1X GlutaMAX supplement (Thermo Fisher Scientific, cat. 35050061), 0.1 mg/mL primocin (InvivoGen, cat. ant-pm-2), 10% defined fetal bovine serum, heat inactivated (HyClone Laboratories Inc., cat. SH30070.03HI), 1.25 mM N-Acetyl-L-cysteine (Sigma-Aldrich, cat. A9165), 10 mM nicotinamide (Sigma-Aldrich, cat. N0636), 1X B-27 supplement (Thermo Fisher Scientific, cat. 17504044), 1X N-2 supplement (Thermo Fisher Scientific, cat. 17502048), and 10 microM Y-27632 dihydrochloride (Tocris Bioscience, cat. 1254). The 876862-298-R-J1-PDC was cultured in 6E media, which includes all 6B/Colon 1A media components plus 50% L-WRN conditioned media (ATCC, cat. CRL-3276), 50 ng/mL recombinant human EGF recombinant protein (hEGF; Thermo Fisher Scientific, cat. PHG0311), 10 ng/mL recombinant human fibroblast growth factor 10 (hGFG-10; PeproTech, cat. 100-26), 1 ng/mL recombinant human fibroblast growth factor 2 (hFGF-2; PeproTech, cat. 100-18B), and 1 µM prostaglandin E2 (PGE2; Tocris, cat. 2296). The 227483-062-R1-J1-PDC line was cultured in Panc media, containing all 6E components except hFGF-2, with the addition of 500 nM SB-431542 (Selleckchem, cat. S1067) and 10 nM gastrin (Tocris, cat. 3006). […]
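Also: spheroids exposed to agents for seven days before readout.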
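For viability, T/C in this document: 100% = DMSO vehicle control viability.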

Row | Compound | IC50 (curve of compound) | viability, T/C (compound 0.0316 µM) | viability, T/C (compound 0.1 µM) | viability, T/C (compound 0.316 µM) | viability, T/C (compound 1 µM) | viability, T/C (compound 3.16 µM) | viability, T/C (compound 10 µM) | further results
1 | C#Cc1c(F)ccc2cc(O)cc(-c3ncc4c(N5CC6CCC(C5)N6)nc(OCC56CCCN5CC(F)C6)nc4c3F)c12 (configuration not stated) | > 10000 nM | 88.1% and 89.3% | 88.5% and 80.7% | 73.6% and 65.8% | 68.5% and 81% | 92% and 112% | 120% and 91.5% | –
2 | C=CC(=O)N1CCN(c2nc(=O)n(-c3c(C)ccnc3C(C)C)c3nc(-c4c(O)cccc4F)c(F)cc23)C(C)C1 (configuration not stated) | > 10000 nM | 88.8% and 84.2% | 95.5% and 87.3% | 92.8% and 92.9% | 113% and 101% | 124% and 132% | 118% and 124% | –
3 | CC(C)CC(NC(=O)C(Cc1ccccc1)NC(=O)c1cnccn1)B(O)O (configuration not stated) | 4.47 nM and 4.75 nM | – | – | – | – | – | – | viability, T/C (compound 0.000949 µM): 86.3% and 91.7%; viability, T/C (compound 0.003 µM): 68% and 73.5%; viability, T/C (compound 0.00949 µM): 16.2% and 14.8%; viability, T/C (compound 0.03 µM): 8.01% and 3.1%; viability, T/C (compound 0.0949 µM): 7.3% and 7.41%; viability, T/C (compound 0.3 µM): 6.04% and 11.3%
4 | CC(CO)NC(=O)c1cc(-c2ccc(Cl)cc2)nn(-c2cnn(C)c2)c1=O (configuration not stated) | > 10000 nM | 112% and 116% | 123% and 158% | 177% and 202% | 169% and 217% | 175% and 243% | 149% and 181% | –
5 | CC1(C)CCC(CN2CCN(c3ccc(C(=O)NS(=O)(=O)c4ccc(NCC5CCOCC5)c([N+](=O)[O-])c4)c(Oc4cnc5[nH]ccc5c4)c3)CC2)=C(c2ccc(Cl)cc2)C1 | > 10000 nM | 96.8% and 88.2% | 97.5% and 99.5% | 86.7% and 95.1% | 101% and 91.4% | 101% and 90.6% | 80.5% and 73.1% | –
6 | CC1COCCN1c1cc(C2(S(C)(=N)=O)CC2)nc(-c2ccnc3[nH]ccc23)n1 (configuration not stated) | 1930 nM and 1080 nM | 106% and 94.9% | 89.1% and 89.6% | 102% and 68.9% | 65.9% and 50.8% | 42.5% and 40.7% | 33.7% and 33.3% | –
7 | CCc1c2c(nc3ccc(O)cc13)-c1cc3c(c(=O)n1C2)COC(=O)[C@]3(O)CC | – | 50.3% and 45.5% | 41.7% and 39% | 35.8% and 39% | 8.79% and 15.5% | – | – | viability, T/C (compound 0.00316 µM): 69.5% and 53%; viability, T/C (compound 0.01 µM): 50.6% and 38%
8 | CN1CCN(c2cc(C(=O)Nc3cc4cc(-c5cnn(C)c5)ccc4cn3)ccn2)CC1 | – | 104% [middle of 12 runs] | 69.2% [middle of 12 runs] | 35.6% [middle of 12 runs] | 5.28% [middle of 12 runs] | 7.69% [middle of 12 runs] | 6.81% [middle of 12 runs] | IC50 (compound alone, run of 09/18/2023): 187 nM [middle of 12 runs]
9 | CNC(=O)c1ccc(Nc2nc(OC3CCCC3)c3c(-c4ccc5nc(C)oc5c4)c[nH]c3n2)c(OC)c1 | – | 95.7% [middle of 12 runs] | 60.6% [middle of 12 runs] | 54.9% [middle of 12 runs] | 44.6% [middle of 12 runs] | 40.7% [middle of 12 runs] | 41.4% [middle of 12 runs] | –
10 | COC1C=CCC(C)C(C)S(=O)(=O)NC(=O)c2ccc3c(c2)N(CC2CCC21)CC1(CCCc2cc(Cl)ccc21)CO3 (configuration not stated) | 1490 nM and 826 nM | 101% and 91.8% | 107% and 82.2% | 73% and 64.9% | 57.9% and 45.1% | 42.4% and 42.2% | 36.5% and 33.7% | –

The next lines start with results.

Row | IC50 (curve of compound) | Compound | viability, T/C (compound 0.0316 µM) | viability, T/C (compound 0.1 µM) | viability, T/C (compound 0.316 µM) | viability, T/C (compound 1 µM) | viability, T/C (compound 3.16 µM) | viability, T/C (compound 10 µM) | further results
11 | 5990 nM and 6930 nM | C=C(F)C(=O)N1CCN(c2nc(OCC3CCCN3C)nc3c2CCN(c2cccc4cccc(Cl)c24)C3)CC1CC#N (configuration not stated) | 79.5% and 98.1% | 108% and 77.6% | 85.4% and 79.5% | 93.6% and 82.5% | 116% and 123% | 12.6% and 30.3% | –
12 | > 300 nM | C=CC(=O)Nc1cc(Nc2nccc(-c3cn(C)c4ccccc34)n2)c(OC)cc1N(C)CCN(C)C | – | – | – | – | – | – | viability, T/C (compound 0.000949 µM): 81.8% and 77.8%; viability, T/C (compound 0.003 µM): 105% and 86.5%; viability, T/C (compound 0.00949 µM): 92.6% and 78.3%; viability, T/C (compound 0.03 µM): 73.7% and 73.6%; viability, T/C (compound 0.0949 µM): 98.9% and 71.4%; viability, T/C (compound 0.3 µM): 71.7% and 55.5%
13 | 279 nM and 217 nM | CC(Nc1ccc2c(c1)OCCn1cc(N3C(=O)OCC3C(F)F)nc1-2)C(N)=O (configuration not stated) | 66.2% and 56.2% | 68.1% and 60.1% | 39.3% and 46.8% | 40.2% and 37.5% | 32% and 39.5% | 18.5% and 29.7% | –
14 | > 10000 nM | CCCS(=O)(=O)Nc1ccc(F)c(C(=O)c2c[nH]c3ncc(-c4ccc(Cl)cc4)cc23)c1F | 107% and 87% | 88.2% and 74.5% | 94.3% and 70.7% | 108% and 71.2% | 104% and 77.5% | 83.7% and 70.3% | –
15 | > 1000 nM | CCN1CCN(Cc2ccc(Nc3ncc(F)c(-c4cc(F)c5nc(C)n(C(C)C)c5c4)n3)nc2)CC1 | 73.7% and 72.2% | 70.1% and 68.2% | 105% and 79.5% | 182% and 142% | – | – | viability, T/C (compound 0.00316 µM): 86.6% and 89.6%; viability, T/C (compound 0.01 µM): 81.3% and 70%
16 | 16 nM and 9.1 nM | COc1c(OCCCN2CCOCC2)ccc2c3n(c(=NC(=O)c4cnc(N)nc4)nc12)CCN3 | 33.9% and 37.7% | 21.9% and 23.6% | 15.5% and 12.8% | 4.99% and 10.7% | – | – | viability, T/C (compound 0.00316 µM): 79.2% and 77.8%; viability, T/C (compound 0.01 µM): 61.3% and 39.7%
17 | > 100 nM | Cn1ncnc1[C@H]1c2n[nH]c(=O)c3cc(F)cc(c23)N[C@@H]1c1ccc(F)cc1 | 67.8% and 81.5% | 69.2% and 63.6% | – | – | – | – | viability, T/C (compound 0.000316 µM): 90.7% and 78.8%; viability, T/C (compound 0.001 µM): 96.5% and 103%; viability, T/C (compound 0.00316 µM): 97.3% and 61.4%; viability, T/C (compound 0.01 µM): 89.6% and 93.2%
18 | 666 nM and 210 nM | NC(=O)C(=Cn1cnc(-c2cc(C(F)(F)F)cc(C(F)(F)F)c2)n1)c1cncnc1 | – | – | – | – | – | – | viability, T/C (compound 0.00949 µM): 71.1% and 74%; viability, T/C (compound 0.03 µM): 66.9% and 66.1%; viability, T/C (compound 0.0949 µM): 52.1% and 56.7%; viability, T/C (compound 0.3 µM): 63.8% and 49.3%; viability, T/C (compound 0.949 µM): 44.3% and 35.1%; viability, T/C (compound 3 µM): 41.7% and 33.4%
19 | > 10000 nM and 9090 nM | Nc1ccccc1NC(=O)c1ccc(CNC(=O)OCc2cccnc2)cc1 | 91% and 99.9% | 87.9% and 94.8% | 123% and 125% | 151% and 140% | 135% and 121% | 52.9% and 43.9% | –
20 | 626 nM and 65.4 nM | Nc1ccn(C2OC(CO)C(O)C2(F)F)c(=O)n1 (configuration not stated) | 56.4% and 64.8% | 48.9% and 39.6% | 59% and 51.7% | 42.4% and 32.9% | 49.2% and 40.4% | 45.5% and 42% | –
21 | > 10000 nM | O=C(c1cc(Cc2n[nH]c(=O)c3ccccc23)ccc1F)N1CCN(C(=O)C2CC2)CC1 | 86.8% and 91.2% | 96.3% and 91.3% | 90.6% and 110% | 88.7% and 91.9% | 74.6% and 93.7% | 55.2% and 51.5% | –
22 | > 10000 nM | O=c1[nH]cc(F)c(=O)[nH]1 | 93.5% and 94.5% | 103% and 97.7% | 96% and 86.2% | 82.7% and 70.5% | 84.2% and 69.9% | 68.2% and 50.6% | –
